In paper PMC9500300, “Development of a novel Bruton’s tyrosine kinase inhibitor that exerts anti-cancer activities potentiates response of chemotherapeutic agents in multiple myeloma stem cell-like cells” (Frontiers in Pharmacology, 2022):
Structures can show the parent of a compound that is named as a salt.

Target: Bruton's tyrosine kinase (BTK) (Homo sapiens, UniProt Q06187)
Experiment: ADP-Glo in vitro kinase assay with BTK enzyme (Promega)
Assay type: biochemical

Bruton's tyrosine kinase (BTK), sequence (Q06187 2-659): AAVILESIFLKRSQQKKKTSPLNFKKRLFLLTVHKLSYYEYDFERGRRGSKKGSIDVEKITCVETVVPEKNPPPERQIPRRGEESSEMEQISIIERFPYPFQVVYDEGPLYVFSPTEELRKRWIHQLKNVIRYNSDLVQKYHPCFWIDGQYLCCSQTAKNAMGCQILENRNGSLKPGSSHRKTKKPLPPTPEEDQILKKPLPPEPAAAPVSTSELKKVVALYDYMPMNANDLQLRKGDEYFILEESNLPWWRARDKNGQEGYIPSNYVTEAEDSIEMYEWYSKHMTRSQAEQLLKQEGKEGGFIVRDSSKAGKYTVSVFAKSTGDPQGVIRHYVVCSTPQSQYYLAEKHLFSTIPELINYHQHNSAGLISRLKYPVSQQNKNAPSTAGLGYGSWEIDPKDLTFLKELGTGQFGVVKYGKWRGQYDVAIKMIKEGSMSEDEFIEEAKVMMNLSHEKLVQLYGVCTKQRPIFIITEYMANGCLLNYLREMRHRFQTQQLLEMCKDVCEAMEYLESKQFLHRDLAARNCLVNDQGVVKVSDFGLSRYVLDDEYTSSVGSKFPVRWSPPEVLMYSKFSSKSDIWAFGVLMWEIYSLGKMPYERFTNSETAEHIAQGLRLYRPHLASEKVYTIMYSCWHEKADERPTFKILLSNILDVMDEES

SMILES: N=C(N)SCc1ccc(CN2C(=O)C(=Cc3ccc(Oc4cccc(Cl)c4Cl)cc3)c3cc([N+](=O)[O-])ccc32)cc1 [compound 6, 4-((3-(4-(2,3-dichlorophenoxy)benzylidene)-5-nitro-2-oxoindolin-1-yl)methyl) benzyl carbamimidothioate hydrobromide]
- inhibition at 1 µM: 49.8%
